# pIC50: −log10 of the molar value. Structures can show the parent of a compound that is named as a salt.
# Target: T1, human DPP-IV (Homo sapiens, UniProt P27487)
# T1 construct: made in house; host or cells: Pichia pastoris
# Assay: DPP-IV activity assay (fluorogenic / colorimetric), IC50 determination
# Assay type: biochemical
# Conditions: natural human DPP-IV from human plasma pool or recombinant human DPP-IV; 37° C., pH 7.8
# Procedure: Activity of DPP-IV inhibitors are tested with natural human DPP-IV derived from a human plasma pool or with recombinant human DPP-IV. Human citrate plasma from different donors is pooled, filtered through a 0.2 micron membrane under sterile conditions and aliquots of 1 ml are shock frozen and stored at −120° C. until used. In the colorimetric DPP-IV assay 5 to 10 μl human plasma and in the fluorometric assay 1.0 μl of human plasma in a total assay volume of 100 μl is used as an enzyme source. The cDNA of the human DPP-IV sequence of amino acid 31- to 766, restricted for the N-terminus and the transmembrane domain, is cloned into Pichia pastoris. Human DPP-IV is expressed and purified from the culture medium using conventional column chromatography including size exclusion and anion and cation chromatography. The purity of the final enzyme preparation of Coomassie blue SDS-PAGE is >95%. In the colorimetric DPP-IV assay 20 ng rec.-h DPP-IV and in the fluorometric assay 2 ng rec-h DPP-IV in a total assay volume of 100 μl is used as an enzyme source.
# In the fluorogenic assay Ala-Pro-7-amido-4-trifluoromethylcoumarin (Calbiochem No 125510) is used as a substrate. A 20 mM stock solution in 10% DMF/H2O is stored at −20° C. until use. […]
# Fluorescence is detected in a Perkin Elmer Luminescence Spectrometer LS 50B at an excitation wavelength of 400 nm and an emission wavelength of 505 nm continuously every 15 seconds for 10 to 30 minutes. Initial rate constants are calculated by best fit linear regression. The absorption of pNA liberated from the colorimetric substrate is detected in a Packard SpectraCount at 405 nm continuously every 2 minutes for 30 to 120 minutes. Initial rate constants are calculated by best fit linear regression. […]
# IC50 determinations of test compounds are calculated by non-linear best fit regression of the DPP-IV inhibition of at least 5 different compound concentrations. Kinetic parameters of the enzyme reaction are calculated at least 5 different substrate concentrations and at least 5 different test compound concentrations.
# T1 sequence (P27487 31-766): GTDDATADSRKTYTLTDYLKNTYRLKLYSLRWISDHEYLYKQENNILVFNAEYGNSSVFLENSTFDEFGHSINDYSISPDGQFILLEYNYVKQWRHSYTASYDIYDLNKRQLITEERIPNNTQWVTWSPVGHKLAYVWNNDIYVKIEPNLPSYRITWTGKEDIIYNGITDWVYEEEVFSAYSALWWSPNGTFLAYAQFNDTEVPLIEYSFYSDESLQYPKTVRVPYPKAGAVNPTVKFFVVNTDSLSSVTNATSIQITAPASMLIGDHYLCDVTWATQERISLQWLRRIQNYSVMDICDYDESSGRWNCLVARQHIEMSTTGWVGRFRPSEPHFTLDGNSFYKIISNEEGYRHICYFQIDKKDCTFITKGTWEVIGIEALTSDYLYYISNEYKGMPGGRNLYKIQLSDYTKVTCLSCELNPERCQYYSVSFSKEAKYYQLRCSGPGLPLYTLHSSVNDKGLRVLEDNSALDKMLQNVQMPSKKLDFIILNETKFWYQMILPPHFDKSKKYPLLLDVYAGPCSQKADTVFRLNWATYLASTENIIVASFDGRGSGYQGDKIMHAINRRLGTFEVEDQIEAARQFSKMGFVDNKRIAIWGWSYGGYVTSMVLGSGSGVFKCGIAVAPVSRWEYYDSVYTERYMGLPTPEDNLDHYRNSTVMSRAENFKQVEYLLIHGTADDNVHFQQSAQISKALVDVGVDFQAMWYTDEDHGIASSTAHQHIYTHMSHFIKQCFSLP
row,SMILES,pIC50
1,"COc1cc2c(cc1OCC(N)=O)CCN1C[C@H](c3cc(C)ccc3C)[C@@H](N)C[C@@H]21 (racemic) [Example 8, (2S,3S,11bS)- and (2R,3R,11bR)-2-[2-Amino-3-(2,5-dimethyl-phenyl)-10-methoxy-1,3,4,6,7,11b-hexahydro-2H-pyrido[2,1-a]isoquinolin-9-yloxy]-acetamide, hydrochloride]",10.00
2,"COc1cc2c(cc1OCC(=O)Nc1nn[nH]n1)CCN1C[C@H](c3cc(C)ccn3)[C@@H](N)C[C@@H]21 (racemic) [Example 13, (2S,3S,11bS)- and (2R,3R,11bR)-2-[2-Amino-10-methoxy-3-(4-methyl-pyridin-2-yl)-1,3,4,6,7,11b-hexahydro-2H-pyrido[2,1-a]isoquinolin-9-yloxy]-N-(2H-tetrazol-5-yl)-acetamide hydrochloride]",8.96
3,"COc1ccc2c(c1OCC(=O)N(C)C)CCN1C[C@H](c3cccc(C)c3)[C@@H](N)C[C@@H]21 (racemic) [Example 48, rac-2-((2S,3S,11bS)-2-Amino-9-methoxy-3-m-tolyl-1,3,4,6,7,11b-hexahydro-2H-pyrido[2,1-a]isoquinolin-8-yloxy)-N,N-dimethyl-acetamide]",9.52

# Reference: patent US20100222340A1, “SUBSTITUTED PYRIDO [1,2-a] ISOQUINOLINE DERIVATIVES” (priority 2004, published 2010)
